Experimental data: US11065286B2 (priority 2016, dated 2021)

Tests used:
[1] = system: MDA-MB-231 cells; assay type: cell-based
[2] = system: Renca, MC38, and 4T1 cell lines; assay type: cell-based, mouse

Compound | vaccinia replication [1] | viral gene expression with HMGB1mut expression in presence of inhibitor [2]
C/C=C/C/C=C/CCC(=O)[C@H]1O[C@H]1C(N)=O [cerulenin] | significantly reduced vaccinia replication | –
Bafilomycin A1 | – | loss of the increased viral gene expression
